Test results as given in US5399566A, “Pyridine derivatives having angiotensin II antagonism” (Meiji Seika Kabushiki Kaisha, priority 1990, dated 1995).

Columns and labels:
[1] = Toxicity test, oral, mice; settings: mouse, in vivo, ddY male mice 5 weeks old
Experimental: Several compounds of the present invention represented by the general formula (I) were administered orally by compulsion to ddY male mice of 5 weeks old (average weight, ca. 20 g).

[2] = target: T1, contraction response to angiotensin II at the isolated thoracic aorta of rabbit (Oryctolagus cuniculus, UniProt P34976); experiment: In vitro angiotensin II antagonism, isolated rabbit thoracic aorta (Schild pA2); type: cell-based; settings: Schild plot
T1 construct: A strip of thoracic aorta of a male rabbit (2.5-3.0 kg) was prepared by the usual method; from tissue; host or cells: rabbit thoracic aorta strip
T1 sequence (P34976 1-359): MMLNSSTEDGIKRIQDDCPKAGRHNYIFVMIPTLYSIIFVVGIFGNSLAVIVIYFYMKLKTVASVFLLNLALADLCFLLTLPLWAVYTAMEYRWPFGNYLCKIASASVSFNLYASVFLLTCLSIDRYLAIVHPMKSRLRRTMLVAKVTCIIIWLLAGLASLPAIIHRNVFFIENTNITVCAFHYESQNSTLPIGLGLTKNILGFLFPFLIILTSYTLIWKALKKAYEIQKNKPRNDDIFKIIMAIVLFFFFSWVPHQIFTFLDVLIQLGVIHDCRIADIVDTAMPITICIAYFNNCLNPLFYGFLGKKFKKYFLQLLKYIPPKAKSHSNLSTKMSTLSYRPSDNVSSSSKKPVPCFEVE
Excerpt: (§1) The angiotensin II antagonistic activities in vitro were compared on the basis of the intensities (pA2 value) of antagonizing the contraction response to angiotensin II at the isolated thoracic aorta of rabbit. The in vivo activities were examined by comparing the inhibitory effects on the hypertensive action by an exogenous angiotensin II in a non-anesthetized rat and the hypotensive effects of a renal hypertensive rat or a spontaneously hypertensive rat.
A strip of thoracic aorta of a male rabbit (2.5-3.0 kg) was prepared by the usual method and suspended in an organ bath containing well oxygenated Krebs-Henseleit solution at 37° C. The pA2 value was calculated according to the method described by H. O. Schild (British Journal of Pharmacology and Chemotherapeutics, 2, 189-206, 1947). A strip treated with 3-5 doses of a subject compound in an amount of 10^-6 M-10^-10 M and a strip treated with no drug were employed for obtaining a dose-response curve by angiotensin II. Log (dose ratio--1) was calculated from the shift of the dose-response curve of the subject compound, and pA2 value was obtained from the Schild plottings.

[3] = tested on: hypertensive action by angiotensin II; experiment: Inhibition on the hypertensive action by an exogenous angiotensin II in conscious rats; type: in vivo, Spraque-Dawley (SD) male rats; settings: oral; for ED50: Rattus norvegicus, within 6 hours after administration, read-out: ED50 (dose required for inhibiting the hypertensive action by angiotensin II to the extent of 50%); for inhibitory effect on the hypertensive action by angiotensin II: angiotensin II 0.1 μg/kg i.v.
Excerpt: as §1
Anesthetized Spraque-Dawley (SD) male rats were cannulated into a femoral artery and a femoral vein and used for the experiment at the time when it has elapsed at least 24 hours after the operation. The hypertensive action caused by angiotensin II (0.1 μg/kg) which has been administered through the vein catheter was measured under conscious and unrestrained condition before and after administration of the compound. The artery catheter was connected to a pressure transducer to measure a mean blood pressure, and the subject compounds were orally administered in the form of a homogeneous suspension in a 0.5% aqueous carboxymethyl cellulose solution.
The intensities of the inhibitory effects within 6 hours after administration of the compound were examined on the basis of the dose of the compound required for inhibiting the hypertensive action by angiotensin II to the extent of 50% (ED50 values).

Fisher 344 male rats = experiment: Antianxiety effect, elevated plus maze; type: in vivo; settings: diazepam 3 mg/kg
Experimental: The subject compounds were examined on their antianxiety effect with the light and dark box according to the method described by B. Costall et al. (Pharmacology Biochemistry and Behavior, 32, 777-785, 1989) and with the elevated plus maze by S. Pell et al. (Journal of Neuroscience Methods, 14, 149-167, 1985).
To Fisher 344 male rats (5-6 weeks old), the subject compounds were orally administered at a dose of 1-100 μg/kg in the form of a homogeneous suspension or solution in a 0.5% aqueous carboxymethyl cellulose solution. Among the four arms of the elevated plus maze (a device in which four arms are intersected crosswise and connected together at a height of 50 cm from the floor), the two arms with side walls are referred to as closed arms and the two arms without side walls are referred to as open arms. […] As the indices of the behavior, the latency until stepped out from the arm first placed to the other arm and the durations in the respective arms were measured, and the other behaviors were recorded. Diazepam was used as a control agent, and the drug administered group and the solvent administered group (group to which a 0.5% aqueous carboxymethyl cellulose solution was administered)were compared for the behaviors.

With `CCc1cc(OCc2ccc(-c3ccccc3-c3nnn[nH]3)cc2)cc(CC)n1` [Example 1, 2,6-Diethyl-4-[2'-(tetrazol-5-yl)biphenyl-4-yl]-methoxypyridine] the LD50 [1] was greater than 1000 mg/kg, the Kb [2] was 5.25 nM and the ED50 [3] was 0.6 mg/kg. For the same molecule, the “inhibitory effect on the hypertensive action by angiotensin II” value (shortened to “inhibitory effect”) ([3]; dose of 1 mg/kg or less) was “significant inhibitory effects”.
Molecule `CCc1cc(OCc2ccc(-c3ccccc3-c3nnn[nH]3)cc2)cc(C)n1` [Example 3, 2-ethyl-6-methyl-4-[2'-(tetrazol-5-yl)biphenyl-4-yl]-methoxypyridine] has an LD50 [1] greater than 1000 mg/kg, a Kb [2] of 5.75 nM and an ED50 [3] of 1.35 mg/kg.
With `CCOc1c(OCc2ccc(-c3ccccc3-c3nnn[nH]3)cc2)cc(C)nc1C` [Example 12, 3-ethoxy-2,6-dimethyl-4-[2'-(tetrazol-5-yl)biphenyl-4-yl]methoxypyridine] the LD50 [1] was greater than 1000 mg/kg, the Kb [2] was 1.74 nM and the ED50 [3] was 0.56 mg/kg. For the same molecule, the “inhibitory effect” value ([3]; dose of 1 mg/kg or less) was “significant inhibitory effects”.
For `CCc1nc(C)cc(OCc2ccc(-c3ccccc3-c3nnn[nH]3)cc2)c1OC` [Example 16, 2-ethyl-3-methoxy-6-methyl-4-[2'-(tetrazol-5-yl)biphenyl-4-yl]methoxypyridine], the Kb [2] was 0.912 nM and the “inhibitory effect” value ([3]; dose of 1 mg/kg or less) was “significant inhibitory effects”.
In the case of `Cc1cc(OCc2ccc(-c3ccccc3-c3nnn[nH]3)cc2)c(OCc2ccccc2)c(C)n1` [Example 21, 3-benzyloxy-2,6-dimethyl-4-[2'-(tetrazol-5-yl)biphenyl-4yl]-methoxypyridine], the Kb [2] is reported as 6.76 nM and the “inhibitory effect” value ([3]; 3 mg/kg) is reported as “significant inhibitory effects”.
In the case of `CCOC(=O)c1c(OCc2ccc(-c3ccccc3-c3nnn[nH]3)cc2)cc(CC)nc1C` [Example 44, 3-ethoxycarbonyl-6-ethyl-2-methyl-4-[2'-(tetrazol-5-yl)-biphenyl-4-yl]methoxypyridine], the Kb [2] is reported as 1 nM and the “inhibitory effect” value ([3]; 3 mg/kg) is reported as “significant inhibitory effects”.
For `CCc1nc(C)cc(OCc2ccc(-c3ccccc3-c3nnn[nH]3)cc2)c1C(=O)OC` [Example 46, 2-ethyl-3-methoxycarbonyl-6-methyl-4-[2'-(tetrazol-5-yl)-biphenyl-4-yl]methoxypyridine], the Kb [2] was 0.617 nM and the “inhibitory effect” value ([3]; dose of 1 mg/kg or less) was “significant inhibitory effects”.
With `Cc1cc(OCc2ccc(-c3ccccc3-c3nnn[nH]3)cc2)c(C(=O)N(C)C)c(C)n1` [Example 53, 2,6-Dimethyl-3-(N,N-dimethylcarbamoyl)-4-[2'-(tetrazol-5-yl)bipbenyl-4-yl]methoxypyridine] the Kb [2] was 3.02 nM and the “inhibitory effect” value ([3]; 3 mg/kg) was “significant inhibitory effects”.
`Cc1cc(OCc2ccc(-c3ccccc3-c3nn[nH]n3)cc2)c(CO)c(C)n1` [Example 55, 3-Hydroxymethyl-2,6-dimethyl-4-[2'-(tetrazol-5-yl)biphenyl-4-yl]methoxypyridine] gave a Kb [2] of 12.3 nM.
With `COCc1c(OCc2ccc(-c3ccccc3-c3nnn[nH]3)cc2)cc(C)nc1C` [Example 57, 3-Methoxymethyl-2,6-dimethyl-4-[2'-(tetrazol-5-yl)-biphenyl-4-yl]methoxypyridine] the Kb [2] was 6.17 nM and the “inhibitory effect” value ([3]; 3 mg/kg) was “significant inhibitory effects”.
For `CC(=O)OCc1c(OCc2ccc(-c3ccccc3-c3nnn[nH]3)cc2)cc(C)nc1C` [Example 67, 3-Acetoxymethyl-2,6-dimethyl-4-[2'-(tetrazol-5-yl)-biphenyl-4-yl]methoxypyridine], the Kb [2] was 0.129 nM.
With `Cc1cc(OCc2ccc(-c3ccccc3-c3nnn[nH]3)cc2)c(C=O)c(C)n1` [Example 68, 3-Formyl-2,6-dimethyl-4-[2'-(tetrazol-5-yl)biphenyl-4-yl]methoxypyridine] the Kb [2] was 5.89 nM.
With `CCc1cc(OCc2ccc(-c3ccccc3C(=O)O)cc2)cc(CC)n1` [Example 81, 2,6-diethyl-4-(2'-carboxybiphenyl-4-yl)m ethoxypyridine] the Kb [2] was 9.77 nM and the “inhibitory effect” value ([3]; 3 mg/kg) was “significant inhibitory effects”.
With `CCOc1c(OCc2ccc(-c3ccccc3C(=O)O)cc2)cc(C)nc1C` [Example 83, 3-ethoxy-2,6-dimethyl-4-(2'-carboxybiphenyl-4yl)methoxypyridine] the LD50 [1] was greater than 1000 mg/kg, the Kb [2] was 28.2 nM and the ED50 [3] was 1.21 mg/kg. The “inhibitory effect” value ([3]; dose of 1 mg/kg or less) was “significant inhibitory effects”.
In the case of `CN1C(=O)CN=C(c2ccccc2)c2cc(Cl)ccc21` [diazepam], the “duration out of the closed arm” value (Fisher 344 male rats) is reported as “increased”, the “latency until stepped out from the arm first placed” value (Fisher 344 male rats) is reported as “significantly decreased” and the transitions (Fisher 344 male rats) is reported as “increased”.
